Assay results taken from PubChem BioAssay AID1919004 (Molecular Pharmacology Branch, DTP, NCI, 2023).

Test system: 883617-216-R-J1-PDC complex spheroids, growth, % test/control
Assay: Anticancer human tumor 883617-216-R-J1-PDC patient-derived bladder carcinoma cell line growth inhibition [AhR]
Conditions: for IC50: curve of first compound; for viability, T/C: stronger effect = lower value
In short: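 Spheroids combined tumor cells with HUVEC endothelial cells and human MSCs as stroma. AhR antagonists were paired with standard or investigational drugs, each dosed in half-log steps down from near clinical Cmax, or from 10 microM where Cmax was unknown.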

[1] = second compound 0.1 µM, first compound 0.0316 µM
[2] = second compound 0.1 µM, first compound 0.1 µM
[3] = second compound 0.1 µM, first compound 0.316 µM
[4] = second compound 0.1 µM, first compound 1 µM
[5] = second compound 0.1 µM, first compound 3.16 µM
[6] = second compound 0.1 µM, first compound 10 µM
[7] = second compound 0.316 µM, first compound 0.0316 µM
[8] = second compound 0.316 µM, first compound 0.1 µM
[9] = second compound 0.316 µM, first compound 0.316 µM
[10] = second compound 0.316 µM, first compound 1 µM
[11] = second compound 0.316 µM, first compound 3.16 µM
[12] = second compound 0.316 µM, first compound 10 µM
[13] = second compound 1 µM, first compound 0.0316 µM
[14] = second compound 1 µM, first compound 0.1 µM
[15] = second compound 1 µM, first compound 0.316 µM
[16] = second compound 1 µM, first compound 1 µM
[17] = second compound 1 µM, first compound 3.16 µM
[18] = second compound 1 µM, first compound 10 µM
[19] = second compound 3.16 µM, first compound 0.0316 µM
[20] = second compound 3.16 µM, first compound 0.1 µM
[21] = second compound 3.16 µM, first compound 0.316 µM
[22] = second compound 3.16 µM, first compound 1 µM
[23] = second compound 3.16 µM, first compound 3.16 µM
[24] = second compound 3.16 µM, first compound 10 µM
[25] = second compound 10 µM, first compound 0.0316 µM
[26] = second compound 10 µM, first compound 0.1 µM
[27] = second compound 10 µM, first compound 0.316 µM
[28] = second compound 10 µM, first compound 1 µM
[29] = second compound 10 µM, first compound 3.16 µM
[30] = second compound 10 µM, first compound 10 µM
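Further: exposure lasted 7 days after dosing on day 3 of spheroid growth.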

SMILES | IC50 (second compound 0.1 µM) [nM] | IC50 (second compound 0.316 µM) [nM] | IC50 (second compound 1 µM) [nM] | IC50 (second compound 3.16 µM) [nM] | IC50 (second compound 10 µM) [nM] | viability, T/C [1] [%] | viability, T/C [2] [%] | viability, T/C [3] [%] | viability, T/C [4] [%] | viability, T/C [5] [%] | viability, T/C [6] [%] | viability, T/C [7] [%] | viability, T/C [8] [%] | viability, T/C [9] [%] | viability, T/C [10] [%] | viability, T/C [11] [%] | viability, T/C [12] [%] | viability, T/C [13] [%] | viability, T/C [14] [%] | viability, T/C [15] [%] | also measured
COc1cc(Nc2ncc3c(n2)-c2ccc(Cl)cc2C(c2c(F)cccc2OC)=NC3)ccc1C(=O)O + Cc1cncc(-c2nc(NCCc3c[nH]c4ccccc34)c3ncn(C(C)C)c3n2)c1 | > 10000 | > 10000 | > 10000 | > 10000 | > 10000 | 83.8 | 86.9 | 81.7 | 72.5 | 73.8 | 61.5 | 86.3 | 83.1 | 81.7 | 72.2 | 73.6 | 65.5 | 91.8 | 88.6 | 75.3 | viability, T/C [16]: 82.8%; viability, T/C [17]: 80%; viability, T/C [18]: 70.8%; viability, T/C [19]: 92.2%; viability, T/C [20]: 98%; viability, T/C [21]: 102%; viability, T/C [22]: 81.8%; viability, T/C [23]: 81.2%; viability, T/C [24]: 72.7%; viability, T/C [25]: 54.4%; viability, T/C [26]: 55%; viability, T/C [27]: 53.1%; viability, T/C [28]: 51.4%; viability, T/C [29]: 56.4%; viability, T/C [30]: 71.2%
NS(=O)(=O)OCC1CC(n2ccc3c(NC4CCc5ccccc54)ncnc32)CC1O (stereo not given) + Cc1cncc(-c2nc(NCCc3c[nH]c4ccccc34)c3ncn(C(C)C)c3n2)c1 | 2750 | 2990 | 2790 | 2260 | < 31.6 | 118 | 165 | 209 | 131 | 43.6 | 29.1 | 128 | 164 | 225 | 120 | 44.5 | 25.9 | 141 | 167 | 212 | viability, T/C [16]: 130%; viability, T/C [17]: 48%; viability, T/C [18]: 30.1%; viability, T/C [19]: 141%; viability, T/C [20]: 179%; viability, T/C [21]: 204%; viability, T/C [22]: 112%; viability, T/C [23]: 33.2%; viability, T/C [24]: 15.4%; viability, T/C [25]: 48.1%; viability, T/C [26]: 50.6%; viability, T/C [27]: 28.6%; viability, T/C [28]: 6.98%; viability, T/C [29]: 4.81%; viability, T/C [30]: 2.51%
O=C(C=Cc1cccc(S(=O)(=O)Nc2ccccc2)c1)NO + Cc1cncc(-c2nc(NCCc3c[nH]c4ccccc34)c3ncn(C(C)C)c3n2)c1 | 1740 | 1660 | 1960 | 1900 | < 31.6 | 92.5 | 93.9 | 83 | 60.6 | 37 | 3.56 | 88.5 | 86.4 | 84.4 | 60.3 | 34.5 | 4.17 | 97.1 | 101 | 96.4 | viability, T/C [16]: 63.5%; viability, T/C [17]: 39.1%; viability, T/C [18]: 2.44%; viability, T/C [19]: 123%; viability, T/C [20]: 114%; viability, T/C [21]: 94.8%; viability, T/C [22]: 69.8%; viability, T/C [23]: 34.6%; viability, T/C [24]: 2.66%; viability, T/C [25]: 52.4%; viability, T/C [26]: 43.2%; viability, T/C [27]: 34.7%; viability, T/C [28]: 42.7%; viability, T/C [29]: 22%; viability, T/C [30]: 1.42%
